Patent US12678433B2, “Compounds for treatment of hemolysis-and inflammasome-associated diseases” (New York Blood Center, Inc., priority 2020, dated 2026)

Columns and labels:
[1] = tested on: purified naïve B cells from healthy donors; conditions: for effect on plasma cell differentiation without or with heme: 2.5 μM compound, without or with 5 μM heme; for inhibition of B cell proliferation / inhibition of plasma cell differentiation: at the highest concentrations
Description: Hemin and RBC lysate preparation. Hemin, dissolved in dimethyl sulfoxide (DMSO), stock concentration 10 mM, was diluted to 100 μM with serum-free RPMI 1640 culture medium just prior to addition to B cell cultures. For short-term experiments lasting less than 24 hr, a final concentration of 10 μM hemin was used whereas for longer-term culture up to 7 days, 2.5-5 μM final heme concentration was used. RBC lysates were freshly prepared (containing ~80 g/L hemoglobin) for same day use. Briefly, 4 ml whole blood from healthy donors was passed through Acrodisc WBC syringe filter (Pall Corporation) to remove white blood cells followed by two washes with Dulbecco's Phosphate Buffered Saline (D-PBS) (200×g, 10 min at room temperature with no brake) for removal of platelets. The RBC pellet was lysed with 3 times volume of distilled water for 10 min at 37° C. Cellular debris was pelleted by centrifugation at 4000×g for 10 min at 4° C. The RBC lysate was transferred to a new tube and 1/9 volume of 10×D-PBS added.
Cell isolation and culture. Peripheral blood mononuclear cells (PBMCs) were prepared by Ficoll (GE Healthcare) density gradient centrifugation from healthy donor leukopak products as well as from sickle peripheral blood apheresis waste bags. Human naïve and memory B cells were isolated from PBMCs using a human memory B Cell Isolation Kit (Miltenyi Biotec) by collecting CD27− B cells (naïve B cells) and CD27+ B cell (memory B cells) separately. […] RPMI 1640 culture medium was used for all cell culture experiments (supplemented with 10% FBS, 100-unit penicillin-streptomycin, […], 1 mM sodium pyruvate, all from Thermo Fisher Scientific). Purified B cells were stained with CFSE (Cat #: C34554, Thermo Fisher Scientific) and cultured in U-bottom 96 well plates (2.5×10^5/well/200 μl culture medium) in the presence of goat anti-human IgA+IgG+IgM (H+L) F(ab′)2 fragment (2.5 μg/ml, Jackson ImmunoResearch), CD154 (10 ng/ml, R&D Systems) and CpG (ODN 7909, 1 nM, Cat #: tlrl-2006-1) without IL-2 for analysis of only CD38+ plasmablast differentiation or with IL-2 (5 ng/ml, Cat #:1081-IL-020, R&D Systems) in experiments to detect CD27^hiBlimp-1+ plasma cells. In addition, heme and various inhibitors were added to the cultures at the start point and incubated for 7 days.
(§1) Cultured cells: stimulated B cells were transferred into U bottom 96 well plate and washed with 200 μl MACS buffer (D-PBS containing 0.5% BSA and 2 mM EDTA) at 300×g for 5 min at 4° C. After one wash, cells were stained for surface expression of CD19, CD38, CD27 using 25 μl staining buffer (anti-CD19, CD38, CD27 antibodies, diluted 200 fold with MACS buffer) for 30 min at 4° C. After one wash with 200 μl MACS buffer, cells were resuspended in 100 μl D-PBS and 50 μl Fixable Viability Dye eFluor™ 780 (1000 fold diluted with D-PBS, Thermo Fisher Scientific) was added for dead cell detection for 5 min at room temperature. Cells were washed one time with MACS buffer and 100 μl D-DPS was added just before flow cytometric analysis (LSRFortessa flow cytometer, BD Bioscience). For intracellular staining of IgG, Blimp-1 and HO-1, samples were first washed with 200 μl MACS buffer before addition of 150 μl Fixation/Permeabilization buffer (Thermo Fisher Scientific) for 45 min at 4° C. After fixation, samples were washed twice with 1× Permeabilization buffer (Thermo Fisher Scientific) and stained with 25 μl intracellular staining buffer (anti-human IgG, DOCK8, Blimp-1, HO-1 antibodies, diluted 200 fold with 1× Permeabilization buffer) for 45 min at 4° C., after which the cells were washed twice with Permeabilization buffer and 100p D-DPS was added prior to flow cytometric analysis.

[2] = tested on: naïve B cells from Allo(−) and Allo(+) SCD patients; test: 7-day stimulated naïve B cell culture from SCD patients; type: cell-based, human; conditions: for effect on heme-mediated inhibition of plasmablast differentiation: SnPPIX 2.5 μM, heme 2.5 μM
Description: Human samples. All studies were approved by the institutional Review Boards of the New York Blood Center (NYBC) and Montefiore Health Center. […] The blood samples from SCD patients were processed within 18 hours after collection. For circulating DOCK8 expression studies in healthy controls, peripheral blood samples from de-identified, race-matched healthy donors were used. Leukocyte enriched products from de-identified healthy donors were used for purification of B cells for in vitro culture studies.
Cell isolation and culture. Peripheral blood mononuclear cells (PBMCs) were prepared by Ficoll (GE Healthcare) density gradient centrifugation from healthy donor leukopak products as well as from sickle peripheral blood apheresis waste bags. Human naïve and memory B cells were isolated from PBMCs using a human memory B Cell Isolation Kit (Miltenyi Biotec) by collecting CD27− B cells (naïve B cells) and CD27+ B cell (memory B cells) separately. […] In addition, heme and various inhibitors were added to the cultures at the start point and incubated for 7 days.
as §1

HO-1 = HO-1 expression in stimulated B cells; type: cell-based, human; conditions: for HO-1 upregulation: 2.5 μM compound with 5 μM heme
Source text: HO-1 is a key enzyme for heme degradation with multiple biologic activities attributed to its enzymatic byproducts. We analyzed HO-1 expression levels in human B cells before and after stimulation with our polyclonal B cell activation cocktail. […] We also found higher HO-1 levels in DOCK8^hi plasma cells (FIG. 8B).

[3] = QA 12 mg/kg intraperitoneally twice per day; cited from earlier work
SCD mice = test: RBC alloimmunization in SCD mice after huGPA RBC transfusion (anti-GPA antibody in plasma); type: in vivo, mouse; conditions: QA 12 mg/kg intraperitoneally twice per day
Description: FIG. 10A-C. Effects of heme and quinine on mouse B cell differentiation in vitro: Splenic B cells were purified from C57BL/6J mice (n=3), stained with CFSE and cultured (5×10^4/well) for 7 days in the presence of anti-mouse IgM, IgG F(ab)′2 (10 μg/ml), anti-mouse CD40 antibody (1 μg/ml) and CpG (ODN1826) (1 μg/ml) without or with different doses of quinine and in the absence or presence of 2.5 μM or 5 μM concentration of hemin. Fold difference in proliferated B cells (FIG. 10A) and CD138+ plasma B cells (FIG. 10B) are shown. FIG. 10C: Representative experiment in SCD mice following transfusion of RBCs expressing human GPA (huGPA RBCs) collected from mice transgenic for human GPA in the absence or presence of quinine (QA). Briefly, mice were transfused twice with […] of huGPA RBCs, each transfusion given one week apart. Mice were treated intraperitoneally twice per day with QA (12 mg/kg, reported to maintain serum quinine levels at 0.5~1 μM) or the same volume PBS. Levels of anti-GPA antibody in plasma were measured 7 days after the last transfusion by flow cytometry.

DOCK8 = DOCK8 expression and DOCK8hi/DOCK8lo subsets in stimulated B cells; type: cell-based, human; conditions: quinine in the presence of heme
Source text: We next tested the effect of cell-free heme on DOCK8 signaling during B cell differentiation. […] Heme treatment led to inhibition of CD27^hiBlimp-1^+ plasma cell differentiation (FIG. 2D, p=0.0195).

[4] = tested on: NLRP3 inflammasome pathway; test: NLRP3 inflammasome activation, IL-1β secretion by LPS-primed monocytes; type: cell-based, human; conditions: in the presence/absence of hemin
Description: FIG. 13A-D depicts human monocytes isolated from peripheral blood were cultured with LPS for 3 hours to prime pro-IL-1β production followed by addition of various NLRP3 pathway agonists to trigger IL-1β secretion without or with therapeutic reagents including hemin, quinine or hemin plus quinine (all at 2.5 μM concentration for all experiments except the dose response studies in FIGS. 13B and C). Levels of IL-1β, IL-6 and TNF-α in the culture supernatants was analyzed 30 min (for ATP treatment) or 2 hours (for nigericin and imiquimod) after addition of NLRP3 agonists. FIG. 13A: The effect of hemin, quinine and hemin plus quinine on IL-1β secretion triggered by various NLRP3 agonists. FIG. 13B: The dose dependent effect of hemin, quinine and hemin plus quinine. FIG. 13C: The effect of QA, CQ, AQ, and DHA in the presence/absence of hemin. FIG. 13D: The effect of hemin, quinine, or hemin plus quinine on IL-6 and TNF-α.

## C=Cc1c2[n-]c(c1C)/C=c1\[n-]/c(c(C)c1C=C)=C\c1[n-]c(c(CCC(=O)O)c1C)C=c1[n-]/c(c(C)c1CCC(=O)O)=C\2.[Sn+4] [SnPPIX, tin protoporphyrin IX]
[1]; SnPPIX 2.5 μM with heme 2.5 μM
  effect on heme-mediated inhibition of plasmablast cell differentiation: reversed
[1]; SnPPIX alone 2.5 μM
  effect on differentiation: no effect
[1]; SnPPIX alone 2.5 μM, vs 6.3%±2.7%
  frequency of CD38+ plasmablasts: 8.1%±3.5%
[1]; heme 2.5 μM, SnPPIX 2.5 μM, alone or together
  effect on B cell proliferation: little to no effect
[2]; Allo(+) SCD patients
  effect on heme-mediated inhibition of plasmablast differentiation: less effect
[2]; Allo(−) SCD patients
  effect on heme-mediated inhibition of plasmablast differentiation: reversed heme-mediated inhibition
[2]; in the presence of SnPPIX 2.5 μM
  B cell proliferative responses, Allo(+) versus Allo(−): comparable

## Cl.Cl.NCCNc1ncc(C(N)=O)c(Nc2cccc(C(F)(F)F)c2)n1 [Syk Inhibitor II]
HO-1; SYK inhibitor relative to no SYK inhibitor
  HO-1 in stimulated B cells: induction of HO-1

## C=C[C@H]1C[N@@]2CC[C@H]1C[C@H]2[C@H](O)c1ccnc2ccc(OC)cc12 [quinine, (R)-(6-Methoxyquinolin-4-yl)[(1S,2S,4S,5R)-5-vinylquinuclidin-2-yl]methanol]
[3]
  serum quinine levels: 0.5~1 μM
SCD mice
  RBC alloimmunization levels in vivo: did not lower
[1]
  effect on plasma cell differentiation without or with heme: required the presence of heme
[1]; except at the highest doses of heme plus quinine
  cytotoxic effects (viability studies): minimal cytotoxic effects
DOCK8
  effect on DOCK8 expression: no significant effect
[2]; Allo(+) patients, quinine plus heme
  effect on resistance to heme suppression: reversed resistance to heme suppression
[2]; Allo(−) SCD patients, quinine plus heme
  effect on heme-mediated suppression of plasma cells: further increased heme-mediated suppression
[2]; both groups of SCD patients
  effect on plasma cell differentiation in the absence of heme: weak but significant inhibitory effect

## C=CC1=C(C)/C(=C/C2=NC(=C\c3[nH]c(/C=C4\NC(=O)C(C)=C4C=C)c(C)c3CCC(=O)O)/C(CCC(=O)O)=C2C)NC1=O [biliverdin]
[1]
  inhibition of B cell proliferation: 13.3%±3.5%
  inhibition of plasma cell differentiation: 68.4%±18.6%

## CCN(CC)CCCC(C)Nc1ccnc2cc(Cl)ccc12 (stereo not shown) [CQ, chloroquine]
HO-1
  HO-1 upregulation: not
[4]
  effect of other hemin binding small molecules on the inflammasome activation pathway: no inhibitory effect
[1]
  effect on plasma cell differentiation without or with heme: inhibited plasma cell differentiation in the absence or presence of heme

## C[C@H]1[C@@H](O)O[C@@H]2O[C@@]3(C)CC[C@H]4[C@H](C)CC[C@@H]1[C@@]24OO3 [DHA, dihydroartemisinin]
[4]
  effect of other hemin binding small molecules on the inflammasome activation pathway: no inhibitory effect

## CCN(CC)Cc1cc(Nc2ccnc3cc(Cl)ccc23)ccc1O [AQ, amodiaquine]
HO-1
  HO-1 upregulation: not
[4]
  effect of other hemin binding small molecules on the inflammasome activation pathway: no inhibitory effect
[1]
  effect on plasma cell differentiation without or with heme: inhibited plasma cell differentiation in the absence or presence of heme

## NCC(=O)O.[C-]#[O+].[C-]#[O+].[C-]#[O+].[Cl][Ru] [CORM-3, carbon monoxide releasing molecule-3]
[1]
  inhibition of B cell proliferation: 38.7%±5.0%
  inhibition of plasma cell differentiation: 91.2%±2.9%

B1: hemopexin: a heme scavenging protein (protein, UniProt P02790 24-462, looked up)
Hemopexin: TPLPPTSAHGNVAEGETKPDPDVTERCSDGWSFDATTLDDNGTMLFFKGEFVWKSHKWDRELISERWKNFPSPVDAAFRQGHNSVFLIKGDKVWVYPPEKKEKGYPKLLQDEFPGIPSPLDAAVECHRGECQAEGVLFFQGDREWFWDLATGTMKERSWPAVGNCSSALRWLGRYYCFQGNQFLRFDPVRGEVPPRYPRDVRDYFMPCPGRGHGHRNGTGHGNSTHHGPEYMRCSPHLVLSALTSDNHGATYAFSGTHYWRLDTSRDGWHSWPIAHQWPQGPSAVDAAFSWEEKLYLVQGTQVYVFLTKGGYTLVSGYPKRLEKEVGTPHGIILDSVDAAFICPGSSRLHIMAGRRLWWLDLKSGAQATWTELPWPHEKVDGALCMEKSLGPNSCSANGPGLYLIHGPNLYCYSDVEKLNAAKALPQPQNVTSLLGCTH
[1]; hemopexin 2.5 μM, RBC lysate 1 g/L hemoglobin or heme 2.5 μM
  effect of pre-incubation with hemopexin on inhibition by RBC lysate or free heme: reversed the inhibitory effect
